In ChEMBL document CHEMBL1140073, “6-Azido-7-nitro-1,4-dihydroquinoxaline-2,3-dione (ANQX) forms an irreversible bond to the active site of the GluR2 AMPA receptor” (J Med Chem, 2008):

Biological target: Glutamate receptor 2 (Homo sapiens, UniProt P42262)
Assay: Inhibition of GluR2 receptor

Sequence of Glutamate receptor 2 (P42262 whole entry): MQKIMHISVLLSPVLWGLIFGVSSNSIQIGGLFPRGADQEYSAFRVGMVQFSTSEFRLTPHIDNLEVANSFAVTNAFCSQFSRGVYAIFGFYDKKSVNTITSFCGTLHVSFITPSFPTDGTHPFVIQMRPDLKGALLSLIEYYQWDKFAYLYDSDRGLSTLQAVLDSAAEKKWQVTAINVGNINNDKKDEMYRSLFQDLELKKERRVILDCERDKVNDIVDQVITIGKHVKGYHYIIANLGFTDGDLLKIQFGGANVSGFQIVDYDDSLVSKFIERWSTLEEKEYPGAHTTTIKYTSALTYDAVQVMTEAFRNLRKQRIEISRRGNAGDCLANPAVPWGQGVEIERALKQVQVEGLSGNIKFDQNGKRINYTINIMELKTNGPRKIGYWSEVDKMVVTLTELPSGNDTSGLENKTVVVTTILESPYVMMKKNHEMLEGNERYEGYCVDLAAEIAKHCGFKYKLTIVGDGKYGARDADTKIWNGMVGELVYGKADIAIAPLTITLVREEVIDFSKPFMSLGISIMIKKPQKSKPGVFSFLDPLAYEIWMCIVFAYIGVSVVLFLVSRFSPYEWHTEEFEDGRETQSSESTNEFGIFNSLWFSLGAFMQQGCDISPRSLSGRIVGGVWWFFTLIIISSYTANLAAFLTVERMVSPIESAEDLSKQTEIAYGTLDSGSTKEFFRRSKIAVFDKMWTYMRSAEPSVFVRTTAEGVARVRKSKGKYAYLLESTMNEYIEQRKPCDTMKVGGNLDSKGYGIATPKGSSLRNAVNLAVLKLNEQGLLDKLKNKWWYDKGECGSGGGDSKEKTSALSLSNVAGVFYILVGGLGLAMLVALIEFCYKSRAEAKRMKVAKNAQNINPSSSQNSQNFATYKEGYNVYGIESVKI

Row | IC50 [µM] | SMILES
1 | 7.6 | O=c1[nH]c2cc3no[n+]([O-])c3cc2[nH]c1=O
2 | 1 | [N-]=[N+]=Nc1cc2[nH]c(=O)c(=O)[nH]c2cc1[N+](=O)[O-]
